# Data reported in patent US20230116114A1, “COMPOUNDS AND COMPOSITIONS FOR TREATING CNS DISORDERS” (Blue Oak Pharmaceuticals, Inc., priority 2020, published 2023).
# Counter-ions that a name gives are not always drawn.
# Tested on: mice
# Test: SmartCube in vivo neuropharmacological behavioral assay
# Settings: for minimal effective dose: Mus musculus, ip, 0.25 h, dose having 50% or more total activity in SmartCube, i.p., read-out: MED (minimal effective dose); for AD: antidepressant (percent probability) / AG: analgesic (percent probability) / AP: antipsychotic (percent probability) / AX: anxiolytic (percent probability) / CE: cognitive enhancer (percent probability) / HA: hallucinogenic (percent probability) / MS: mood stabilizer (percent probability) / PS (percent probability) / SD: sedative hypnotic (percent probability) / SE: side effects (percent probability) / UN: uncharacterized CNS activity (percent probability) / XG: anxiogenic (percent probability): SmartCube, i.p. 15 min before test, result at the MED
# Procedure: The compounds were evaluated for their CNS related properties (e.g., the treatment, prevention or diagnosis of CNS or CNS-related disorders and/or amelioration of symptoms) using neuropharmacological screening methods described in S. L. Roberts et al., Front. Neurosci. 2011, 5:103 (hereinafter referred to as “Roberts,” the contents of which are incorporated herein by reference in their entirety).
# According to Roberts, intact systems are useful in detecting improvement in disease-relevant endpoints, because psychiatric diseases generally result from disorders of cell-cell communication or circuitry. The endpoints are typically behavioral in nature, often requiring human observation and interpretation. In order to test multiple compounds for behavioral effects relevant to neurological and psychiatric diseases and disorders, PsychoGenics, Inc. (Paramus, N.J. “PGI”) developed SmartCube®, an automated system in which behaviors of compound-treated mice are captured by digital video and analyzed with computer algorithms to facilitate testing of multiple compounds for behavioral effects relevant to psychiatric disease. (D. Brunner et al., Drug Discov. Today 2002, 7:S107-S112; Alexandrov et al., Eur. J. Pharmacol. 2015, 753:127-134; the contents of each of which are incorporated herein by reference in their entirety).
# The SmartCube® system is described in Example 2.2 of U.S. Pat. No. 9,758,529 and Example 289 of WIPO Publication No. WO2018/023070, the contents of each of which are incorporated herein by reference in their entirety.
# According to the present disclosure, compounds identified may be evaluated using the SmartCube® system. The results of such analysis correlate certain patterns or combinations of behaviors to CNS effects along a percent probability scale of 0-100 where zero (0) reflects the limit of quantitation (LOQ).
# The compounds of the present disclosure were evaluated for their CNS related properties (e.g., the treatment, prevention or diagnosis of CNS or CNS-related disorders and/or amelioration of symptoms) using neuropharmacological screening methods described in S. L. Roberts et al., Front. Neurosci. 2011, 5:103 (hereinafter referred to as “Roberts,” the contents of which are incorporated herein by reference in their entirety).
# The SmartCube® system described herein was utilized to compare the behavioral signature of a test compound to a database of behavioral signatures obtained using a large set of diverse reference compounds (including but not limited to antipsychotics, anxiolytics, antidepressants and bipolar disorder medicine), thereby predicting the neuropharmacological effects of a test compound by similarity to major classes of compounds. It produces an activity signature indicating the probability that the activity of the test compound at the administered dose matches a given class of neuropharmacological agents. The test compound is simultaneously compared against multiple classes of agents; thus, a separate probability is generated for each behavioral effect measured (such as but not limited to anxiolytic activity and analgesic activity).
# The compounds of the present disclosure were dissolved in a mixture of Pharmasolve™ (N-methyl-2-pyrrolidone (NMP)) and were injected i.p. 15 min. before the behavioral test. For each compound, injections were administered at different dose levels (e.g., 0.3, 1, 3, 10 and 30 mg per kg (mpk)). A compound's minimal effective dose (MED; see Table 3) is a measure of the compound's potency. The MED was defined as the dose (in mpk) having 50% or more total activity in SmartCube®. For each behavioral effect measured, results at the MED are presented. CNS activities of the compounds were recorded (see Table 2). In Table 1, a key to the percent probabilities (probability ×100) for each behavioral effect (“X”) are defined provided, where LOQ is the limit of quantification.
smiles,measurement,value
"CC(C1CC1)N1C2CCCC1c1ccccc12 (centres unmarked) [Compound 21, 12-(1-Cyclopropylethyl)-12-azatricyclo[6.3.1.0]dodeca-2,4,6-triene hydrochloride]",minimal effective dose,0.1 to 1 mg/kg
same,AD: antidepressant (percent probability),+++ (25% ≤ X < 50%)
same,AG: analgesic (percent probability),++ (5% ≤ X < 25%)
same,AP: antipsychotic (percent probability),+ (LOQ ≤ X < 5%)
same,AX: anxiolytic (percent probability),++ (5% ≤ X < 25%)
same,CE: cognitive enhancer (percent probability),+ (LOQ ≤ X < 5%)
same,HA: hallucinogenic (percent probability),+ (LOQ ≤ X < 5%)
same,MS: mood stabilizer (percent probability),+ (LOQ ≤ X < 5%)
same,PS (percent probability),+ (LOQ ≤ X < 5%)
same,SD: sedative hypnotic (percent probability),+ (LOQ ≤ X < 5%)
same,SE: side effects (percent probability),+ (LOQ ≤ X < 5%)
same,UN: uncharacterized CNS activity (percent probability),+ (LOQ ≤ X < 5%)
same,XG: anxiogenic (percent probability),+ (LOQ ≤ X < 5%)
"CCC(CC)N1C2CCCC1c1ccccc12 [Compound 17, 12-(Pentan-3-yl)-12-azatricyclo[6.3.1.0^2,7]dodeca-2,4,6-trienehydrochloride]",minimal effective dose,10 to 30 mg/kg
same,AD: antidepressant (percent probability),++ (5% ≤ X < 25%)
same,AG: analgesic (percent probability),+ (LOQ ≤ X < 5%)
same,AP: antipsychotic (percent probability),+ (LOQ ≤ X < 5%)
same,AX: anxiolytic (percent probability),++ (5% ≤ X < 25%)
same,CE: cognitive enhancer (percent probability),+ (LOQ ≤ X < 5%)
same,HA: hallucinogenic (percent probability),+ (LOQ ≤ X < 5%)
same,MS: mood stabilizer (percent probability),+ (LOQ ≤ X < 5%)
same,PS (percent probability),++++ (50% ≤ X < 100%)
same,SD: sedative hypnotic (percent probability),+ (LOQ ≤ X < 5%)
same,SE: side effects (percent probability),+ (LOQ ≤ X < 5%)
same,UN: uncharacterized CNS activity (percent probability),+ (LOQ ≤ X < 5%)
same,XG: anxiogenic (percent probability),+ (LOQ ≤ X < 5%)
"FC1CCC2NC1c1ccccc12 (centres unmarked) [Compound 30, 9-Fluoro-12-azatricyclo[6.3.1.0^2,7]dodeca-2,4,6-triene hydrochloride]",minimal effective dose,> 30 mg/kg
same,AD: antidepressant (percent probability),+ (LOQ ≤ X < 5%)
same,AG: analgesic (percent probability),+ (LOQ ≤ X < 5%)
same,AP: antipsychotic (percent probability),+ (LOQ ≤ X < 5%)
same,AX: anxiolytic (percent probability),++ (5% ≤ X < 25%)
same,CE: cognitive enhancer (percent probability),+ (LOQ ≤ X < 5%)
same,HA: hallucinogenic (percent probability),+ (LOQ ≤ X < 5%)
same,MS: mood stabilizer (percent probability),+ (LOQ ≤ X < 5%)
same,PS (percent probability),+ (LOQ ≤ X < 5%)
same,SD: sedative hypnotic (percent probability),+ (LOQ ≤ X < 5%)
same,SE: side effects (percent probability),+ (LOQ ≤ X < 5%)
same,UN: uncharacterized CNS activity (percent probability),+ (LOQ ≤ X < 5%)
same,XG: anxiogenic (percent probability),+ (LOQ ≤ X < 5%)
"CCCN1C2CCCC1c1ccccc12 [Compound 7, 12-Propyl-12-azatricyclo[6.3.1.0^2,7]dodeca-2,4,6-triene hydrochloride]",minimal effective dose,10 to 30 mg/kg
same,AD: antidepressant (percent probability),++ (5% ≤ X < 25%)
same,AG: analgesic (percent probability),+++ (25% ≤ X < 50%)
same,AP: antipsychotic (percent probability),+ (LOQ ≤ X < 5%)
same,AX: anxiolytic (percent probability),++ (5% ≤ X < 25%)
same,CE: cognitive enhancer (percent probability),+ (LOQ ≤ X < 5%)
same,HA: hallucinogenic (percent probability),+ (LOQ ≤ X < 5%)
same,MS: mood stabilizer (percent probability),+ (LOQ ≤ X < 5%)
same,PS (percent probability),++ (5% ≤ X < 25%)
same,SD: sedative hypnotic (percent probability),+ (LOQ ≤ X < 5%)
same,SE: side effects (percent probability),+ (LOQ ≤ X < 5%)
same,UN: uncharacterized CNS activity (percent probability),+ (LOQ ≤ X < 5%)
same,XG: anxiogenic (percent probability),+ (LOQ ≤ X < 5%)
"Fc1cc2c(cc1F)C1CCCC2N1 [Compound 40, 4,5-Difluoro-12-azatricyclo[6.3.1.0^2,7]dodeca-2,4,6-triene hydrochloride]",minimal effective dose,> 30 mg/kg
same,AD: antidepressant (percent probability),++ (5% ≤ X < 25%)
same,AG: analgesic (percent probability),++ (5% ≤ X < 25%)
same,AP: antipsychotic (percent probability),+ (LOQ ≤ X < 5%)
same,AX: anxiolytic (percent probability),++ (5% ≤ X < 25%)
same,CE: cognitive enhancer (percent probability),+ (LOQ ≤ X < 5%)
same,HA: hallucinogenic (percent probability),+ (LOQ ≤ X < 5%)
same,MS: mood stabilizer (percent probability),+ (LOQ ≤ X < 5%)
same,PS (percent probability),++ (5% ≤ X < 25%)
same,SD: sedative hypnotic (percent probability),+ (LOQ ≤ X < 5%)
same,SE: side effects (percent probability),+ (LOQ ≤ X < 5%)
same,UN: uncharacterized CNS activity (percent probability),+ (LOQ ≤ X < 5%)
same,XG: anxiogenic (percent probability),+ (LOQ ≤ X < 5%)
"CC(C)N1C2CC[C@H](C)C1c1ccccc12 (stereo in doubt) [Compound 33, 9-Methyl-12-(propan-2-yl)-12-azatricyclo[6.3.1.0^2,7]dodeca-2,4,6-triene hydrochloride]",minimal effective dose,1 to 10 mg/kg
same,AD: antidepressant (percent probability),++++ (50% ≤ X < 100%)
same,AG: analgesic (percent probability),+ (LOQ ≤ X < 5%)
same,AP: antipsychotic (percent probability),+ (LOQ ≤ X < 5%)
same,AX: anxiolytic (percent probability),+ (LOQ ≤ X < 5%)
same,CE: cognitive enhancer (percent probability),+ (LOQ ≤ X < 5%)
same,HA: hallucinogenic (percent probability),+ (LOQ ≤ X < 5%)
same,MS: mood stabilizer (percent probability),+ (LOQ ≤ X < 5%)
same,PS (percent probability),+ (LOQ ≤ X < 5%)
same,SD: sedative hypnotic (percent probability),+ (LOQ ≤ X < 5%)
same,SE: side effects (percent probability),+ (LOQ ≤ X < 5%)
same,UN: uncharacterized CNS activity (percent probability),+ (LOQ ≤ X < 5%)
same,XG: anxiogenic (percent probability),+ (LOQ ≤ X < 5%)
"c1ccc2c(c1)C1CCCC2N1C1CCCCC1 [Compound 13, 12-Cyclohexyl-12-azatricyclo[6.3.1.0^2,7]dodeca-2,4,6-triene hydrochloride]",minimal effective dose,10 to 30 mg/kg
same,AD: antidepressant (percent probability),+++ (25% ≤ X < 50%)
same,AG: analgesic (percent probability),+ (LOQ ≤ X < 5%)
same,AP: antipsychotic (percent probability),+ (LOQ ≤ X < 5%)
same,AX: anxiolytic (percent probability),++ (5% ≤ X < 25%)
same,CE: cognitive enhancer (percent probability),+ (LOQ ≤ X < 5%)
same,HA: hallucinogenic (percent probability),+ (LOQ ≤ X < 5%)
same,MS: mood stabilizer (percent probability),+ (LOQ ≤ X < 5%)
same,PS (percent probability),++ (5% ≤ X < 25%)
same,SD: sedative hypnotic (percent probability),+ (LOQ ≤ X < 5%)
same,SE: side effects (percent probability),+ (LOQ ≤ X < 5%)
same,UN: uncharacterized CNS activity (percent probability),+ (LOQ ≤ X < 5%)
same,XG: anxiogenic (percent probability),+ (LOQ ≤ X < 5%)
"CO[C@H]1CC[C@H]2c3ccccc3[C@@H]1N2C(C)C (stereo in doubt) [Compound 28, 9-methoxy-12-(propan-2-yl)-12-azatricyclo[6.3.1.0^2,7]dodeca-2,4,6-triene hydrochloride]",minimal effective dose,10 to 30 mg/kg
same,AD: antidepressant (percent probability),++ (5% ≤ X < 25%)
same,AG: analgesic (percent probability),++ (5% ≤ X < 25%)
same,AP: antipsychotic (percent probability),+ (LOQ ≤ X < 5%)
same,AX: anxiolytic (percent probability),++ (5% ≤ X < 25%)
same,CE: cognitive enhancer (percent probability),+ (LOQ ≤ X < 5%)
same,HA: hallucinogenic (percent probability),+ (LOQ ≤ X < 5%)
same,MS: mood stabilizer (percent probability),+ (LOQ ≤ X < 5%)
same,PS (percent probability),++ (5% ≤ X < 25%)
same,SD: sedative hypnotic (percent probability),+ (LOQ ≤ X < 5%)
same,SE: side effects (percent probability),+ (LOQ ≤ X < 5%)
same,UN: uncharacterized CNS activity (percent probability),+++ (25% ≤ X < 50%)
same,XG: anxiogenic (percent probability),+ (LOQ ≤ X < 5%)
